# According to US5712270A, “2-arylamidothiazole derivatives with CNS activity” (American Home Products Corporation, priority 1996, dated 1998):
# Columns and labels:
# [1] = test system: scopolamine-induced hyperactivity; assay: Reversal of scopolamine-induced hyperactivity in mice (swim tank); type: in vivo, Male CFW mice; conditions: Mus musculus, ip, 5 min, 0.3 mg/kg scopolamine.HBr, i.p., mean swimming distance, read-out: minimum effective dose (MED), reversal of scopolamine hyperactivity
# Method: The compound of Example 1 was also tested in accordance with the procedure of Symons et al, Soc. Neuroscience Abstracts 12:2, 897 (1986) in which Male CFW mice, 25 to 35 grams in weight are given the test compound in suitable vehicle plus 0.3 mg/kg scopoolamine.HBr in suitable vehicle, i.p.(3 groups of 12 animals each) or vehicle alone (1 group of 12 animals ) or vehicle plus scopolamine. HBr (1 group of 12 animals). The rates are placed in a swim tank, individually, containing 10 cm H2 O for a period of 5 minutes and the distance each animal swims is recorded.
# [2] = test system: memory in patients with mild to moderate Alzheimer's Disease; conditions: cited from earlier work; for memory improvement in patients: mild to moderate Alzheimer's Disease
# [3] = test system: serotonin 5-HT1A receptor; conditions: standard for anxiolytic activity; cited from earlier work
structure (smiles),measurement,setting,value
"CN(C)CCOC(=O)c1csc(NC(=O)c2cc(C(C)(C)C)c(O)c(C(C)(C)C)c2)n1 [Example 1, 2-[[3,5,-Bis(1,1-dimethylethl)-4-hydroxybenzoyl]amino]-4-thiazolecarboxylicacid 2-(dimethylamino)ethyl ester]",minimal effective dose,[1],3 mg/kg
COC(=O)C1=CCCN(C)C1 [arecoline],memory improvement in patients,[2],memory improvement in patients with mild to moderate Alzheimer's Disease
O=C1CC2(CCCC2)CC(=O)N1CCCCN1CCN(c2ncccn2)CC1 [buspirone],"affinity for the 5-HT1A serotonin receptor subtype (words, buspirone)",[3],potent affinity
Nc1c2c(nc3ccccc13)CCCC2 [tacrine],side effects,[2]; especially at the higher doses,adverse side effects especially at the higher doses
same,memory improvement in patients,[2],improvement in memory can be shown in patients with mild to moderate Alzheimer's Disease
